Test results taken from article PMC10923852, “Gustavson syndrome is caused by an in-frame deletion in RBMX associated with potentially disturbed SH3 domain interactions” (European Journal of Human Genetics, 2023).
Values belong to the molecule of their own block, whether it stands above or below them. Where a SMILES comes first, the peptide text is derived from it. Where no end group is shown, it is not given here.

Tests used:
BIN1-SH3 [1] = target: T1, BIN1-SH3 (Homo sapiens, UniProt O00499); assay: Fluorescence polarization saturation binding, BIN1-SH3 domain with FITC-labeled hnRNP G peptide; conditions: FITC-labeled peptide 10 nM
T1 construct: GST (cleaved yes); Genecast (peptides); host or cells: E. coli BL21-DE3 GOLD
T1 sequence (O00499 520-593 limits assumed): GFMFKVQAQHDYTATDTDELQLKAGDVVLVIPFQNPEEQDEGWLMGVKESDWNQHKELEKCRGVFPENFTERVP
Method: (§1) To further investigate if the tri-proline region spanning the variant had the capacity to interact with SH3 domains, a fluorescence polarization assay with hnRNP G peptides and SH3 domains were performed. Wildtype and mutant (△P162) hnRNP G peptides of different lengths spanning the region of interest (P38159) were ordered from Genecast (Supplementary material 2) with or without Fluorescein isothiocyanate (FITC)-label (purity >95%, dissolved in 50 mM potassium phosphate pH 7.5). Two SH3 domains were expressed and purified: ASAP1-SH3 (Addgene: 91501), BIN1-SH3 (GenScript) according to standard protocol (Supplementary material 2). […]
(§2) To determine the affinity between BIN-SH3 domain and the non-labeled hnRNP G peptides, displacement experiments were performed where the fixed concentration of FITC-labeled peptide and protein was mixed with an increasing concentration of displacer non-labeled peptide. […] All results were analyzed with GraphPad Prism to determine the dissociation constant for labeled peptide and the IC50 values, and Microsoft Excel was used to calculate KD from IC50. All fluorescence polarization experiments were performed in 50 mM potassium phosphate pH 7.5, containing 1 mM tris(2-carboxyethyl)phosphine (TCEP). […]

ASAP1-SH3 [2] = target: T2, ASAP1-SH3 (Homo sapiens, UniProt Q9ULH1); assay: Fluorescence polarization saturation binding, ASAP1-SH3 domain with FITC-labeled hnRNP G peptide; conditions: FITC-labeled peptide 10 nM
T2 construct: Two SH3 domains were expressed and purified: ASAP1-SH3 (Addgene: 91501), BIN1-SH3 (GenScript); GST (cleaved yes); host or cells: E. coli BL21-DE3 GOLD
T2 sequence (Q9ULH1 1067-1129 limits assumed): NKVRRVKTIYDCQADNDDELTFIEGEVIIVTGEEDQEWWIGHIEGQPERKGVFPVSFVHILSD
Method: as §1, §2

BIN1-SH3 [3] = target: T1, BIN1-SH3; assay: Fluorescence polarization displacement, BIN1-SH3 domain with non-labeled hnRNP G peptides; format: binding; conditions: for binding affinity for BIN1-SH3 (in words): fluorescence polarization, 50 mM potassium phosphate pH 7.5, 1 mM TCEP
Method: (§3) To further investigate if the tri-proline region spanning the variant had the capacity to interact with SH3 domains, a fluorescence polarization assay with hnRNP G peptides and SH3 domains were performed. Wildtype and mutant (△P162) hnRNP G peptides of different lengths spanning the region of interest (P38159) were ordered from Genecast (Supplementary material 2) with or without Fluorescein isothiocyanate (FITC)-label (purity >95%, dissolved in 50 mM potassium phosphate pH 7.5). Two SH3 domains were expressed and purified: ASAP1-SH3 (Addgene: 91501), BIN1-SH3 (GenScript) according to standard protocol (Supplementary material 2).
(§4) To determine the affinity between BIN-SH3 domain and the non-labeled hnRNP G peptides, displacement experiments were performed where the fixed concentration of FITC-labeled peptide and protein was mixed with an increasing concentration of displacer non-labeled peptide. The mP signal was investigated to determine the IC50 values, which were then converted to dissociation constants as previously described. All results were analyzed with GraphPad Prism to determine the dissociation constant for labeled peptide and the IC50 values, and Microsoft Excel was used to calculate KD from IC50. All fluorescence polarization experiments were performed in 50 mM potassium phosphate pH 7.5, containing 1 mM tris(2-carboxyethyl)phosphine (TCEP).
SH3 domains were expressed by transforming expression constructs into E. coli (BL21-DE3 GOLD) and grown in LB media with 50 µg/ml ampicillin (ASAP1) or 50 µg/ml kanamycin (BIN1) at 37°C until reaching an OD600 of 0.6. Protein expression was induced with 1mM isopropyl-β-thiogalactopyranoside and the protein expression proceeded overnight at 18 °C. Cells were harvested and resuspended in lysis buffer (50 mM Tris/HCl pH 7.8, 10 µg/mL DNase I and RNase A (Hoffman-La Roche, Switzerland), 300 mM NaCl, 4 mM MgCl2, 2 mM CaCl2 and cOmplete EDTA-free Protease Inhibitor Cocktail (Hoffman-La Roche)) and lysed by sonication. Cell lysate was clarified by centrifugation at 20,000 g for 40 min, filtered and transferred to Glutathione Sepharose 4 Fast Flow media (GE Healthcare). After 30-minute incubation, glutathione media was washed with wash buffer (50 mM Tris/HCl pH 7.8 300 mM NaCl, 4 mM DTT), eluted with elution buffer (50 mM Tris/HCl pH 7.8 300 mM NaCl, 4 mM DTT, 10 mM reduced glutathione), and the GST-tag was cleaved overnight with PreScission protease (BIN1) or Thrombin (ASAP1). Next day the cleaved protein was applied to a […] to remove the tag, and pure protein was dialyzed into 50 mM potassium phosphate buffer pH 7.4, and concentrated using the Amicon ultra 15ml centrifugal filters (3kDa cutoff, Merck Millipore, UFC900308). Purity of the sample was analyzed by SDS-PAGE and its identity confirmed by MALDI-TOF mass spectrometry. The sample was then frozen until fluorescence polarization experiments were performed.

ASAP1-SH3 [4] = target: T2, ASAP1-SH3; assay: Fluorescence polarization displacement, ASAP1-SH3 domain; format: binding
Method: as §3
as §4, with “(TCEP). […]” for “(TCEP).”

BIN1 SH3 [5] = target: T3, BIN1 SH3 (Homo sapiens, UniProt O00499); assay: fluorescence polarization displacement
T3 chain: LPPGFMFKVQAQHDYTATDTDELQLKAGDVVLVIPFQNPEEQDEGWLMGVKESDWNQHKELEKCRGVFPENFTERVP

ASAP1 SH3 = target: T4, ASAP1 SH3 (Homo sapiens, UniProt Q9ULH1); assay: fluorescence polarization saturation
T4 chain: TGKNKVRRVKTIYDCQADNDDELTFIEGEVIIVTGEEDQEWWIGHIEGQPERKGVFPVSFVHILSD

BIN1 SH3 [6] = target: T3, BIN1 SH3; assay: fluorescence polarization saturation

binding to BIN1-SH3 (in words) (BIN1-SH3 [1]): binding with moderate affinities
binding to ASAP1-SH3 (in words) (ASAP1-SH3 [2]): binding with moderate affinities
Molecule: 150-KRGPPPRSGGPPPKRSAPSGPy-170 [hnRNP G aa 150-170, wildtype FITC, FITC-labeled wildtype hnRNP G peptide, residues 150-170]

Molecule: C[C@H](NC(=O)[C@H](CO)NC(=O)[C@H](CCCNC(=N)N)NC(=O)[C@H](CCCCN)NC(=O)[C@@H]1CCCN1C(=O)[C@@H]1CCCN1C(=O)[C@@H]1CCCN1C(=O)CNC(=O)CNC(=O)[C@H](CO)NC(=O)[C@H](CCCNC(=N)N)NC(=O)[C@@H]1CCCN1C(=O)[C@@H]1CCCN1C(=O)CNC(=O)[C@H](CCCNC(=N)N)NC(=O)[C@@H](N)CCCCN)C(=O)N1CCC[C@H]1C(=O)N[C@@H](CO)C(=O)NCC(=O)N1CCC[C@H]1C(=O)N[C@@H](Cc1ccc(O)cc1)C(=O)O [hnRNP G aa 150-170, △P162] (H-KRGPPRSGGPPPKRSAPSGPY-OH; N-terminus and C-terminus assumed)
binding affinity for BIN1-SH3 (in words) (BIN1-SH3 [3]): no clear difference in binding affinity compared to the wildtype peptide
binding affinity for BIN1-SH3 (in words) (BIN1-SH3 [3]; listed as longer hnRNP G peptide, △P162 variant): no clear difference in SH3 binding affinity between the wildtype and the mutant peptide

binding affinity for BIN1-SH3 (in words) (BIN1-SH3 [3]): reduced binding affinity
affinity for BIN1-SH3 relative to wildtype peptide (fold) (BIN1-SH3 [3]; short peptide aa 156–169 △P162 vs wildtype): threefold weaker affinity
Molecule: C[C@H](NC(=O)[C@H](CO)NC(=O)[C@H](CCCNC(=N)N)NC(=O)[C@H](CCCCN)NC(=O)[C@@H]1CCCN1C(=O)[C@@H]1CCCN1C(=O)CNC(=O)CNC(=O)[C@H](CO)NC(=O)[C@@H](N)CCCNC(=N)N)C(=O)N1CCC[C@H]1C(=O)N[C@@H](CO)C(=O)NCC(=O)N[C@@H](Cc1ccc(O)cc1)C(=O)O [hnRNP G aa 156-169, △P162] (H-RSGGPPKRSAPSGY-OH; N-terminus and C-terminus assumed)

binding affinity for BIN1-SH3 (in words) (BIN1-SH3 [3]): moderate affinities
binding affinity for BIN1-SH3 (in words) (BIN1-SH3 [3]; listed as shorter hnRNP G peptide (aa 156–169)): weaker but comparable affinity
binding affinity for ASAP1-SH3 (in words) (ASAP1-SH3 [4]): moderate affinities
Molecule: C[C@H](NC(=O)[C@H](CO)NC(=O)[C@H](CCCNC(=N)N)NC(=O)[C@H](CCCCN)NC(=O)[C@@H]1CCCN1C(=O)[C@@H]1CCCN1C(=O)[C@@H]1CCCN1C(=O)CNC(=O)CNC(=O)[C@H](CO)NC(=O)[C@@H](N)CCCNC(=N)N)C(=O)N1CCC[C@H]1C(=O)N[C@@H](CO)C(=O)NCC(=O)N[C@@H](Cc1ccc(O)cc1)C(=O)O [hnRNP G aa 156-169, wildtype] (H-RSGGPPPKRSAPSGY-OH; N-terminus and C-terminus assumed)

Kd (BIN1 SH3 [5]): 150 µM
Molecule: RSGGPPPKRSAPSG [hnRNP G 156-169]

Kd (ASAP1 SH3): ~400 µM
Kd (BIN1 SH3 [6]): ~400 µM
Molecule: KRGPPPRSGGPPPKRSAPSGP (also: FITC-labeled, site not given here)

Kd (BIN1 SH3 [5]): 40 µM
Molecule: KRGPPPRSGGPPPKRSAPSGP
